Data as given in patent publication US10786690B2, “Amide derivatives of polycaffeoylquinic acids, process for producing same and uses thereof” (TEMISIS, priority 2016, dated 2020).
Where “and” joins values, the source holds several entries; their conditions need not be identical. Equal entries are not always repeated.

Experiments:
[1] = test system: PGE2; assay: PGE2 production by NHEKs in the inflammatory state (PMA), ELISA; format: cell-based, human; details: PMA 10 ng/ml 24 h, compounds 50 μM, indomethacin 10 μg/ml, relative to PMA induced control (100%)
Experimental: (§1) The study was carried out on Normal Human Epidermal Keratinocytes (NHEKs) (Lonza, CC-2507, origin: foreskin) in monolayer culture in Epilife medium (Invitrogen, M-EPI-500-A) containing the components of the Human Keratinocyte Growth Supplement (HKGS) mixture (Invitrogen, S-001-K) added separately, except hydrocortisone having anti-inflammatory properties.
For the quantification of IL-8 and PGE2, the inflammatory state of the NHEKs in culture was induced by treatment with PMA (phorbol myristate acetate/10 ng/ml/H2O) for 24 h. Induction of IL-6 was achieved by treatment with PMA (10 ng/ml/H2O) combined with calcium ionophore A23187 (2 μM/DMSO) in medium containing calcium at a concentration of 0.8 mM. TNF-α secretion was induced by a combination of PMA (10 ng/ml/H2O) and calcium ionophore A23187 (2 μM/DMSO) applied for 24 h (TNF-α) in medium containing 0.06 mM calcium. The reference molecules used are dexamethasone (10 μM/H2O) and indomethacin (10 μg/ml/ethanol).
The effect of the compounds was studied by applying them to the keratinocyte culture medium 2 h prior to induction of the inflammatory state as well as during induction (2 h for LTB4, 24 h for IL-8, PGE2, IL-6 and TNF-α).
Each condition was carried out in triplicate cultures and the supernatants were recovered at the end of the various treatments.
(§2) Quantification of the various inflammatory mediators was carried out with specific kits, based on a standard curve, according to the instructions provided by the kits' suppliers, R&D Systems and Cayman Chemical.
(§3) Before induction of the inflammatory state, the NHEKs were treated with the compounds and reference molecules for 2 h. The inflammatory state was then induced according to the conditions described in the methodology section, the culture supernatants were collected, and the various inflammatory mediators were quantified by the ELISA technique.
The effect of the compounds on PGE2 production is presented in FIG. 5 and is expressed as a percentage of the PMA treatment set at 100%.

[2] = test system: Normal Human Epidermal Keratinocytes (NHEKs); assay: Microscopic observation of NHEK cell survival 48 h after inflammatory treatment; format: cell-based
Experimental: The cells, treated and not treated by the compounds to be tested, were observed under an optical microscope 48 h after the following inflammatory treatment: 10 ng/mL PMA/H2O+2 μM calcium ionophore A23187/DMSO.
NHEKs were brought into contact or not with the compounds to be tested. After 2 h, the cells underwent or not an inflammation treatment (10 ng/mL PMA/H2O+2 μM calcium ionophore A23187/DMSO).
The cells were observed under an optical microscope 48 h after the inflammatory treatment.

[3] = test system: IL-8; assay: IL-8 production by NHEKs in the inflammatory state (PMA), ELISA; format: cell-based, human; details: PMA 10 ng/ml 24 h, compounds 50 μM, dexamethasone 10 μM, relative to PMA induced control (100%)
Experimental: as §1
(§4) For the quantification of IL-8 and PGE2, the inflammatory state of the NHEKs in culture was induced by treatment with PMA (phorbol myristate acetate/10 ng/ml/H2O) for 24 h. Induction of IL-6 was achieved by treatment with PMA (10 ng/ml/H2O) combined with calcium ionophore A23187 (2 μM/DMSO) in medium containing calcium at a concentration of 0.8 mM. […]
as §2
as §3, with “technique. […]” for “technique.”

[4] = test system: TNF-α; assay: TNF-α production by NHEKs in the inflammatory state (PMA + calcium ionophore, 0.06 mM Ca2+), ELISA; format: cell-based, human; details: PMA + calcium ionophore A23187 24 h, compounds 50 μM, dexamethasone 10 μM, relative to induced control
Experimental: as §1, §4, §2
as §3, with “technique. […]” for “technique.”

[5] = test system: Normal Human Dermal Fibroblasts (NHDFs); assay: qRT-PCR gene expression in Normal Human Dermal Fibroblasts; format: cell-based; details: 4 μM, 24 h
Experimental: The study consisted in measuring the effects of compound PAT1657 by qRT-PCR on the expression of 94 genes involved in dermal biology, connective tissue remodelling and ageing.
The protocol consisted in applying compound PAT1657 for 24 h in the culture medium of Normal Human Dermal Fibroblasts (NHDFs) in monolayer and analysing the various RNA populations to identify the genes differentially expressed by real-time qRT-PCR.
The study was carried out on Normal Human Dermal Fibroblasts (NHDFs) (ATCC, CRL-2522, origin: foreskin) at about 40% of their proliferative potential and grown in monolayer in DMEM medium (Invitrogen, 31885-049) containing antibiotics (penicillin/streptomycin, Invitrogen, 15140-122) but not containing serum. The cells were maintained in a humid atmosphere at 37° C. containing 5% CO2.
Compound PAT1657 was applied in the NHDF culture medium for 24 h (n=3). Controls treated with the solvent DMSO (1% for the NHDFs) in which the active agents were prepared were also analysed. At the end of the treatments, total RNA populations were extracted, their integrity was analysed by capillary electrophoresis, and gene expression differences were analysed by qRT-PCR using 96-well TaqMan microfluidic cards (custom produced by Applied Biosystems), targeting key functions of the dermis and epidermis. The technical details of the implementation of the present paragraph are explained in the “Materials and methods” section of Example 1 of patent application FR1650745 and more specifically the sub-section titled “Analysis of gene expression changes” (page 26 line 22 to page 28 line 9).
The gene expression changes induced by the active agents are expressed as relative quantity (RQ) based on the respective DMSO solvent controls.

## CCCCCCCCNC(=O)[C@]1(O)C[C@@H](OC(=O)/C=C/c2ccc(O)c(O)c2)[C@@H](O)[C@H](OC(=O)/C=C/c2ccc(O)c(O)c2)C1 [PAT1657, (2E,2′E)-((1R,2S,3R,5S)-2,5-dihydroxy-5-(octylcarbamoyl)cyclohexane-1,3-diyl) bis(3-(3,4-dihydroxyphenyl)acrylate)]
[1]
  PGE2 production: very highly significantly decrease
[2]; NHEK cultures 48 h after inflammatory treatment (10 ng/mL PMA + 2 μM calcium ionophore A23187), microscopic observation
  Result at 48 h: cell survival: Confluent culture: 100%
[2]; NHEK cultures 48 h after inflammatory treatment, summary in words
  effect on cell survival / cellular protection against inflammation: strong cellular protection against inflammation
[3]
  IL-8 production: inhibit/reduce IL-8 production to the baseline level
[4]
  TNF-α production: most marked effects and are more effective than dexamethasone itself
[5]; in words only
  expression of gene GSS: overexpressed
[5]; relative to 1% DMSO vehicle
  RQ (relative expression), gene CCL5: 28.13
  RQ (relative expression), gene DDIT3: 2.81
  RQ (relative expression), gene FTL: 2.1 and 2.08
  RQ (relative expression), gene GADD45A: 3.68
  RQ (relative expression), gene KLF4: 1.9 and 1.93
  RQ (relative expression), gene MMP1: 6.9 and 6.91
  RQ (relative expression), gene MMP3: 3.1 and 3.12
  RQ (relative expression), gene MTNR1A: 1.46
  RQ (relative expression), gene NANOG: 4.7 and 4.67
  RQ (relative expression), gene NOX1: 1.46
  RQ (relative expression), gene POU5F1: 5.1
  RQ (relative expression), gene RBP2: 1.46
  RQ (relative expression), gene RORA: 4.4 and 4.41
  RQ (relative expression), gene SIRT1: 2.02
  RQ (relative expression), gene SOD2: 4.7 and 4.66
  RQ (relative expression), gene TXNRD1: 2.8 and 2.82
  RQ (relative expression), gene VEGFA: 8.3 and 8.28
